In paper PMC4621896 (Oncotarget, 2015):
Like-named read-outs stand apart in the source and are kept apart here.

Key:
YopH Y. enterocolitica = YopH Y. enterocolitica (Yersinia enterocolitica, UniProt P15273); format: biochemical
[1] = target: YopH from Yersinia enterocolitica (Yersinia enterocolitica, UniProt P15273); assay: biochemical
Human recombinant CD45 = target: T1, Human recombinant CD45 (Homo sapiens, UniProt P08575); assay: biochemical
T1 construct: purchased Sigma-Aldrich
T1 sequence (P08575 609-1306 limits assumed): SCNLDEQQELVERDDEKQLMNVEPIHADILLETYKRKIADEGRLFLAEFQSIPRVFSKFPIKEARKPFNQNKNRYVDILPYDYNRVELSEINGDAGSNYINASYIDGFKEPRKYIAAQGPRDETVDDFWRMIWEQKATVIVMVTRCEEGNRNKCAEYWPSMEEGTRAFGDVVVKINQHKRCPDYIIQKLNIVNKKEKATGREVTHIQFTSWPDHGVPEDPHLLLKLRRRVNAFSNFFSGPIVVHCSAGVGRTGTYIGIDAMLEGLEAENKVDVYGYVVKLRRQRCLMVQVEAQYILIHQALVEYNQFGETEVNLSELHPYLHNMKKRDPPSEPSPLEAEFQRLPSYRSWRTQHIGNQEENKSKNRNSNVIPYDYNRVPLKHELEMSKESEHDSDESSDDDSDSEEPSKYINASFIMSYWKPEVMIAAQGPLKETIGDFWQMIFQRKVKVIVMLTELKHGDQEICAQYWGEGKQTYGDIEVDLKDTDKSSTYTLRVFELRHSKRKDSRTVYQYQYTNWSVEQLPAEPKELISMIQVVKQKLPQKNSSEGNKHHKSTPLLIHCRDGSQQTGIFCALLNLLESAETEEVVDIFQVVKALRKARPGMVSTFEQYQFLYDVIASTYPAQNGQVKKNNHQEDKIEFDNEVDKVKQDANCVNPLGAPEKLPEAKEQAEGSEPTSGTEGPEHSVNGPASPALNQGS

[2] = target: YopH protein tyrosine phosphatase from Yersinia pestis (Yersinia pestis, UniProt O68720); assay: biochemical
YopH [3] = target: T2, YopH (Yersinia enterocolitica, UniProt P15273); format: biochemical
YopH [4] = target: T2, YopH; format: biochemical; remark: listed apart in the source

T2 sequence (P15273 whole entry, looked up): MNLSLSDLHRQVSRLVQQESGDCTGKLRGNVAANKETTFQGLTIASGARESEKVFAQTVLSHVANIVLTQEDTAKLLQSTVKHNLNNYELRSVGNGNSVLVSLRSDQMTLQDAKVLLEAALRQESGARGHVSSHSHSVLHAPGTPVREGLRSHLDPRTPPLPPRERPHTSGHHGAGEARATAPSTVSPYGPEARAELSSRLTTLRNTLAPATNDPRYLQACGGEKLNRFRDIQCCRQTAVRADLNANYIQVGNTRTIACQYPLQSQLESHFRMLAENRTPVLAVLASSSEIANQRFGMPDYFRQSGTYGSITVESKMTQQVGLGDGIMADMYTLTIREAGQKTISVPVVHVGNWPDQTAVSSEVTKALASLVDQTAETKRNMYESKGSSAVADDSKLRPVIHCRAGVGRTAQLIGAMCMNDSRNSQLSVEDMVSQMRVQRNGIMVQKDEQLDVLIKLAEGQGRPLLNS
YopH protein tyrosine phosphatase from Yersinia pestis, sequence (O68720 1-468): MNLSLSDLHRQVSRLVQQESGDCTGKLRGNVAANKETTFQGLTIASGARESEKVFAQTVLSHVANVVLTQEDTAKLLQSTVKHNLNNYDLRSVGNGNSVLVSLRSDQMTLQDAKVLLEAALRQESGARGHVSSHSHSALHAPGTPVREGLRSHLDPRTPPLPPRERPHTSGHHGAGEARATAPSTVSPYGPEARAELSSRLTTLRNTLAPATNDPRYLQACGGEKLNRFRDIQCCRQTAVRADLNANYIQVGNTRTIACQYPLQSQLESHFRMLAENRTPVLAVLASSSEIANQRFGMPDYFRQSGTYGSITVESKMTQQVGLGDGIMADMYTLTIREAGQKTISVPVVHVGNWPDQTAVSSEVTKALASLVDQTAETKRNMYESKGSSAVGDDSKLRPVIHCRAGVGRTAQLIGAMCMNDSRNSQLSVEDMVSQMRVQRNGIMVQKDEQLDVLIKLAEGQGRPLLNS
YopH from Yersinia enterocolitica, sequence (P15273 whole entry, looked up): as the sequence (P15273 whole entry, looked up) above
YopH Y. enterocolitica, sequence (P15273 whole entry, looked up): as above

With `O=C(O)C1=CC(=C(c2ccc(O)c(C(=O)O)c2)c2ccc(O)c(C(=O)O)c2)C=CC1=O` [ATA, aurintricarboxylic acid] the “Reversibility of ATA induced inhibition of YopH” value (YopH Y. enterocolitica) was “completely reversed”, the IC50 [1] was 0.1 µM and the “Effect of catalase pretreatment on ATA induced CD45 inactivation” value (Human recombinant CD45) was “almost completely protected”. For the same compound, the IC50 (Human recombinant CD45) was 0.2 µM, the IC50 [2] was 0.01 µM and the “Effect of catalase pretreatment on ATA induced YopH inactivation” value (YopH [3]) was “almost completely protected”. The “Effect of catalase on ATA induced decrease of thiol adducts” value (YopH [4]) was “completely prevented” and the “Reduction of thiol-NBD adducts compared to control” value (YopH [4]) was “over 50%”.
For `CCCCCCCC(=O)OO` [peroctanoic acid], the IC50 ([1]; read-out: IC50 value, YopH Y.entorocolitica inhibition) was 0.039 µM, the IC50 (Human recombinant CD45; read-out: IC50 value, CD45 inhibition) was 0.025 µM and the IC50 ([2]; read-out: IC50 value, YopH Y.pestis inhibition) was 0.041 µM.
